Among the data in ChEMBL document CHEMBL5532761, “Rosavin improves insulin resistance and alleviates hepatic and kidney damage via modulating the cGAS-STING pathway and autophagy signaling in HFD/STZ-induced T2DM animals” (2024) are Activity values, retold here.

Experiment [1] concerns Rattus norvegicus. The experiment is described as follows: Antidiabetic activity in high fat diet-STZ induced diabetic Wistar rat model assessed as insulin level in serum at 10 mg/kg, ip pretreated with high fat diet for 4 weeks followed by 8 hrs fasting after STZ administration and measured 4 weeks after compound treatment by ELISA (reference value: 16.53 +/- 1.14 microU/ml). Format: functional. In general terms: In an ELISA, binding on a coated surface is turned into a signal by an enzyme label.

For experiment [2], the system named is Rattus norvegicus. The experiment is described as follows: Antidiabetic activity in high fat diet-STZ induced diabetic Wistar rat model assessed as LDL-cholesterol level at 10 mg/kg, ip pretreated with high fat diet for 4 weeks followed by 8 hrs fasting after STZ administration and measured 4 weeks after compound treatment (reference value: 6.54 +/- 0.918 mmol/L). Format: functional.

In experiment [3] the test system is Rattus norvegicus. The experiment is described as follows: Antidiabetic activity in high fat diet-STZ induced diabetic Wistar rat model assessed as ALT level at 10 mg/kg, ip pretreated with high fat diet for 4 weeks followed by 8 hrs fasting after STZ administration and measured 4 weeks after compound treatment (reference value: 152.1 +/- 23.64 IU/L). Format: functional.

Experiment [4] relates to Rattus norvegicus. The experiment in a line: Antidiabetic activity in high fat diet-STZ induced diabetic Wistar rat model assessed as urine albumin to creatinine ratio at 10 mg/kg, ip pretreated with high fat diet for 4 weeks followed by 8 hrs fasting after STZ administration and measured 4 weeks after compound treatment (reference value: 87.13 +/- 9.75 mg/g). It counts as functional.

The test system of experiment [5] is Rattus norvegicus. The experiment in a line: Antidiabetic activity in high fat diet-STZ induced diabetic Wistar rat model assessed as cholesterol level at 20 mg/kg, ip pretreated with high fat diet for 4 weeks followed by 8 hrs fasting after STZ administration and measured 4 weeks after compound treatment (reference value: 10.39 +/- 1.3 mmol/L). Format: functional.

Experiment [6] relates to Rattus norvegicus. The experiment is described as follows: Antidiabetic activity in high fat diet-STZ induced diabetic Wistar rat model assessed as blood urea nitrogen level at 20 mg/kg, ip pretreated with high fat diet for 4 weeks followed by 8 hrs fasting after STZ administration and measured 4 weeks after compound treatment (reference value: 466.4 +/- 51.16 mg%). It counts as functional.

For experiment [7], the system named is Rattus norvegicus. The experiment is described as follows: Antidiabetic activity in high fat diet-STZ induced diabetic Wistar rat model assessed as AST level at 20 mg/kg, ip pretreated with high fat diet for 4 weeks followed by 8 hrs fasting after STZ administration and measured 4 weeks after compound treatment (reference value: 136.3 +/- 22.8 IU/L). It counts as functional.

The test system of experiment [8] is Rattus norvegicus. The experiment in a line: Antidiabetic activity in high fat diet-STZ induced diabetic Wistar rat model assessed as HOMA-IR level at 30 mg/kg, ip pretreated with high fat diet for 4 weeks followed by 8 hrs fasting after STZ administration and measured 4 weeks after compound treatment (reference value: 21.51 +/- 2.17). Format: functional.
The test system of experiment [9] is Rattus norvegicus. The experiment is described as follows: Antidiabetic activity in high fat diet-STZ induced diabetic Wistar rat model assessed as triglyceride level at 30 mg/kg, ip pretreated with high fat diet for 4 weeks followed by 8 hrs fasting after STZ administration and measured 4 weeks after compound treatment (reference value: 17.05 +/- 0.803 mmol/L). Format: functional.

Experiment [10] has as its system Rattus norvegicus. The experiment in a line: Antidiabetic activity in high fat diet-STZ induced diabetic Wistar rat model assessed as AST level at 30 mg/kg, ip pretreated with high fat diet for 4 weeks followed by 8 hrs fasting after STZ administration and measured 4 weeks after compound treatment (reference value: 136.3 +/- 22.8 IU/L). Format: functional.
The test system of experiment [11] is Rattus norvegicus. The experiment is described as follows: Antidiabetic activity in high fat diet-STZ induced diabetic Wistar rat model assessed as mean area percentage of LC3B in kidney at 30 mg/kg, ip pretreated with high fat diet for 4 weeks followed by 8 hrs fasting after STZ administration and measured after 4 weeks of compound treatment by immunohistochemistry based microscopic analysis (reference value: 2.47 +/- 0.356 %). Format: functional.

For experiment [12], the system named is Rattus norvegicus. The experiment in a line: Antidiabetic activity in ip dosed high fat diet-STZ induced diabetic Wistar rat model assessed as reduction of STING mRNA expression in kidney pretreated with high fat diet for 4 weeks followed by 8 hrs fasting after STZ administration and measured 4 weeks after compound treatment by RT-qPCR analysis. It counts as functional, organism-based. The settings on record: dose 10-30 mg/kg.

Experiment [13] has as its system Rattus norvegicus. The experiment is described as follows: Antidiabetic activity in ip dosed high fat diet-STZ induced diabetic Wistar rat model assessed as reduction of STING mRNA expression in adipose tissue pretreated with high fat diet for 4 weeks followed by 8 hrs fasting after STZ administration and measured 4 weeks after compound treatment by RT-qPCR analysis. Format: functional, organism-based. The settings on record: dose 10-30 mg/kg. In general terms: Quantitative PCR measures a nucleic acid by following its amplification.

Experiment [14] relates to Rattus norvegicus. The experiment is described as follows: Antidiabetic activity in ip dosed high fat diet-STZ induced diabetic Wistar rat model assessed as reduction of DDX58 mRNA expression in adipose tissue pretreated with high fat diet for 4 weeks followed by 8 hrs fasting after STZ administration and measured 4 weeks after compound treatment by RT-qPCR analysis. Format: functional, organism-based. The following applies: dose 10-30 mg/kg.

Experiment [15] concerns Rattus norvegicus. The experiment is described as follows: Antidiabetic activity in ip dosed high fat diet-STZ induced diabetic Wistar rat model assessed as reduction of miR-1976 expression in adipose tissue pretreated with high fat diet for 4 weeks followed by 8 hrs fasting after STZ administration and measured 4 weeks after compound treatment by RT-qPCR analysis. Format: functional, organism-based. The settings on record: dose 10-30 mg/kg.

The subject of experiment [16] is Rattus norvegicus. The experiment is described as follows: Antidiabetic activity in high fat diet-STZ induced diabetic Wistar rat model assessed as protection against diffuse hepatocellular microvesicular steatosis at 10 mg/kg, ip pretreated with high fat diet for 4 weeks followed by 8 hrs fasting after STZ administration and measured 4 weeks after compound treatment by hematoxylin and eosin staining based microscopic analysis. Format: functional, organism-based.

The subject of experiment [17] is Rattus norvegicus. The experiment in a line: Antidiabetic activity in high fat diet-STZ induced diabetic Wistar rat model assessed as intact hepatocytes by measuring reduction in persistent fatty changes at 20 mg/kg, ip pretreated with high fat diet for 4 weeks followed by 8 hrs fasting after STZ administration and measured 4 weeks after compound treatment by hematoxylin and eosin staining based microscopic analysis. It counts as functional, organism-based.

Experiment [18] concerns Rattus norvegicus. The experiment in a line: Antidiabetic activity in high fat diet-STZ induced diabetic Wistar rat model assessed as reduction in tubular degenerative changes in kidney at 10 mg/kg, ip pretreated with high fat diet for 4 weeks followed by 8 hrs fasting after STZ administration and measured 4 weeks after compound treatment by hematoxylin and eosin staining based microscopic analysis. Format: functional, organism-based.

The subject of experiment [19] is Rattus norvegicus. The experiment is described as follows: Antidiabetic activity in high fat diet-STZ induced diabetic Wistar rat model assessed as appearance of apparent intact segments in kidney at 10 mg/kg, ip pretreated with high fat diet for 4 weeks followed by 8 hrs fasting after STZ administration and measured 4 weeks after compound treatment by hematoxylin and eosin staining based microscopic analysis. Format: functional, organism-based.

Experiment [20] deals with Rattus norvegicus. The experiment in a line: Antidiabetic activity in high fat diet-STZ induced diabetic Wistar rat model assessed as reduction in persistent tubular dilation in kidney at 20 mg/kg, ip pretreated with high fat diet for 4 weeks followed by 8 hrs fasting after STZ administration and measured 4 weeks after compound treatment by hematoxylin and eosin staining based microscopic analysis. Format: functional, organism-based.

Experiment [21] deals with Rattus norvegicus. The experiment in a line: Antidiabetic activity in high fat diet-STZ induced diabetic Wistar rat model assessed as increase in body weight at 10 to 30 mg/kg, ip pretreated with high fat diet for 4 weeks followed by 8 hrs fasting after STZ administration and measured 4 weeks after compound treatment. Format: functional, organism-based. The following applies: dose 10-30 mg/kg.

Experiment [22] relates to Rattus norvegicus. The experiment is described as follows: Antidiabetic activity in high fat diet-STZ induced diabetic Wistar rat model assessed as protection against replacement of hepatocellular necrosis with inflammatory cells at 10 mg/kg, ip pretreated with high fat diet for 4 weeks followed by 8 hrs fasting after STZ administration and measured 4 weeks after compound treatment by hematoxylin and eosin staining based microscopic analysis. Format: functional, organism-based.

The subject of experiment [23] is Rattus norvegicus. The experiment in a line: Antidiabetic activity in high fat diet-STZ induced diabetic Wistar rat model assessed as reduction in focal necrotic lesions in liver at 20 mg/kg, ip pretreated with high fat diet for 4 weeks followed by 8 hrs fasting after STZ administration and measured 4 weeks after compound treatment by hematoxylin and eosin staining based microscopic analysis. Format: functional, organism-based.

Activity calls are given as the source filed them. The rule behind the calls is not given here.

For the compound `O[C@@H]1[C@@H](O)[C@H](OC/C=C/c2ccccc2)O[C@H](CO[C@@H]2OC[C@H](O)[C@H](O)[C@H]2O)[C@H]1O`, the Activity came out at 13.88 uU/ml in the experiment on Rattus norvegicus [1]; 3.19 mmol/L in the experiment on Rattus norvegicus [2]; 79.5 IU/L with Rattus norvegicus [3]; 50.75 mg/g with Rattus norvegicus [4]; 4.27 mmol/L with Rattus norvegicus [5]; 213.3 mg% in the experiment with Rattus norvegicus [6]. For the same compound, the Activity is 54.5 IU/L in the experiment on Rattus norvegicus [7]; 1.73 in the experiment on Rattus norvegicus [8]; 4.03 mmol/L in the experiment on Rattus norvegicus [9]; 30.25 IU/L in the experiment with Rattus norvegicus [10]; 12.7% in the experiment on Rattus norvegicus [11]; “Dose-Dependent Effect” with Rattus norvegicus [12]. The Activity result with Rattus norvegicus [13], in the experiment on Rattus norvegicus [14] and in the experiment with Rattus norvegicus [15] was “Dose-Dependent Effect” each time. The outcome in the experiment with Rattus norvegicus [16], with Rattus norvegicus [18], in the experiment with Rattus norvegicus [19] and in the experiment on Rattus norvegicus [22] was inactive. For the same compound, the outcome with Rattus norvegicus [17], in the experiment with Rattus norvegicus [20], in the experiment on Rattus norvegicus [21] and with Rattus norvegicus [23] was Active.
